SMILES strings stand for the structures.

For assay [1], the target named is Serine/threonine-protein kinase 38 (Homo sapiens) (UniProt Q15208). Kind of assay: Selectivity interaction (LanthaScreen Eu Kinase Binding Assay) EUB0001632a STK38. Particulars: at 10 µM. A general note: TR-FRET usually uses a lanthanide donor and a delayed reading to cut background.
Assay [2] concerns the target Serine/threonine-protein kinase pim-1 (Homo sapiens, UniProt P11309). As to the kind of experiment: Selectivity interaction (KinomeScan (DiscoverX)) EUB0000655a PIM1. Particulars: at 10 µM.
In assay [3] the target is T1, Interleukin-1 receptor-associated kinase 3 (Homo sapiens) (UniProt Q9Y616).
T1 sequence (whole entry): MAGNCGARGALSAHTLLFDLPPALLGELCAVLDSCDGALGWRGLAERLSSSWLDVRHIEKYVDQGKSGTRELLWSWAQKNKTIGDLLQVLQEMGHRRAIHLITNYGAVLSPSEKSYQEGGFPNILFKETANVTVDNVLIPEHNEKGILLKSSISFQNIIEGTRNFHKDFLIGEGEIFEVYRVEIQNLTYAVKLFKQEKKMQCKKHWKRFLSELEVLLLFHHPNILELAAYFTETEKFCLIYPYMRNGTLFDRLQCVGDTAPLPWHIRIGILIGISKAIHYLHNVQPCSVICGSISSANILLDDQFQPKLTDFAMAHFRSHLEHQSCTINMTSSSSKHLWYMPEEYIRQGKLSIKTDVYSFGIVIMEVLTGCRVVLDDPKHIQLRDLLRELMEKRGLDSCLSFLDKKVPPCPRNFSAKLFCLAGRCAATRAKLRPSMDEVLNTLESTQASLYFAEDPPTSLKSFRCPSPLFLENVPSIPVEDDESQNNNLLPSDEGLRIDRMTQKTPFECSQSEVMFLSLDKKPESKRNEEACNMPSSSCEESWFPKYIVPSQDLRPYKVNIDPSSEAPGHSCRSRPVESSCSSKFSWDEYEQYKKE
Kind of assay: Selectivity interaction (ActivX KiNativ screen (kinase selectivity in THP-1 cell lysates)) EUB0000639a IRAK3. It counts as subcellular. As to conditions: lysate, at 5 µM.

The target in assay [4] is Serine/threonine-protein kinase Nek6 (Homo sapiens) (UniProt Q9HC98). Kind of assay: Selectivity interaction (ActivX KiNativ screen (kinase selectivity in THP-1 cell lysates)) EUB0000639a NEK6. It counts as subcellular. As to conditions: lysate.
For assay [5], the target named is T2, 3-phosphoinositide-dependent protein kinase 1 (Homo sapiens) (UniProt O15530).
T2 sequence (whole entry): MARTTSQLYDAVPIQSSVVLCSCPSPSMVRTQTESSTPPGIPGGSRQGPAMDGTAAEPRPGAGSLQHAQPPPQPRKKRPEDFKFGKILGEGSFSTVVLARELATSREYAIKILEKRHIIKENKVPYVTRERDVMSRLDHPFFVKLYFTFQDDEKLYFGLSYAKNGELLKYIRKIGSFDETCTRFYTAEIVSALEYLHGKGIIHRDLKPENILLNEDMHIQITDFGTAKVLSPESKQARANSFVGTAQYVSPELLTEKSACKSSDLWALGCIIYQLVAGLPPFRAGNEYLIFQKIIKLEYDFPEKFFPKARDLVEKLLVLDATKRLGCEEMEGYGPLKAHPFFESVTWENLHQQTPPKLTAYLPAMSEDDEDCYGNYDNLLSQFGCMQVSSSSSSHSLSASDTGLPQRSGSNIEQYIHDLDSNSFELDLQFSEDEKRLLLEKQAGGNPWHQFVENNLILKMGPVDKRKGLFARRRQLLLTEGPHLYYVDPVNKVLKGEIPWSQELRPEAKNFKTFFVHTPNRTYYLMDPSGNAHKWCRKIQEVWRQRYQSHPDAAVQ
As to the kind of experiment: Selectivity interaction (KinomeScan (DiscoverX)) EUB0000695a PDPK1. As to conditions: at 100 nM.

For assay [6], the target named is cAMP-dependent protein kinase catalytic subunit alpha (Homo sapiens, UniProt P17612). Kind of assay: Selectivity interaction (ProQinase) EUB0000171b PRKACA.
The target in assay [7] is Protein kinase C theta type (Homo sapiens, UniProt Q04759). As to the kind of experiment: Selectivity interaction (ProQinase) EUB0000171b PRKCQ.
Assay [8] addresses T3, Histone-lysine N-methyltransferase EHMT1 (Homo sapiens) (UniProt Q9H9B1).
T3 sequence (whole entry): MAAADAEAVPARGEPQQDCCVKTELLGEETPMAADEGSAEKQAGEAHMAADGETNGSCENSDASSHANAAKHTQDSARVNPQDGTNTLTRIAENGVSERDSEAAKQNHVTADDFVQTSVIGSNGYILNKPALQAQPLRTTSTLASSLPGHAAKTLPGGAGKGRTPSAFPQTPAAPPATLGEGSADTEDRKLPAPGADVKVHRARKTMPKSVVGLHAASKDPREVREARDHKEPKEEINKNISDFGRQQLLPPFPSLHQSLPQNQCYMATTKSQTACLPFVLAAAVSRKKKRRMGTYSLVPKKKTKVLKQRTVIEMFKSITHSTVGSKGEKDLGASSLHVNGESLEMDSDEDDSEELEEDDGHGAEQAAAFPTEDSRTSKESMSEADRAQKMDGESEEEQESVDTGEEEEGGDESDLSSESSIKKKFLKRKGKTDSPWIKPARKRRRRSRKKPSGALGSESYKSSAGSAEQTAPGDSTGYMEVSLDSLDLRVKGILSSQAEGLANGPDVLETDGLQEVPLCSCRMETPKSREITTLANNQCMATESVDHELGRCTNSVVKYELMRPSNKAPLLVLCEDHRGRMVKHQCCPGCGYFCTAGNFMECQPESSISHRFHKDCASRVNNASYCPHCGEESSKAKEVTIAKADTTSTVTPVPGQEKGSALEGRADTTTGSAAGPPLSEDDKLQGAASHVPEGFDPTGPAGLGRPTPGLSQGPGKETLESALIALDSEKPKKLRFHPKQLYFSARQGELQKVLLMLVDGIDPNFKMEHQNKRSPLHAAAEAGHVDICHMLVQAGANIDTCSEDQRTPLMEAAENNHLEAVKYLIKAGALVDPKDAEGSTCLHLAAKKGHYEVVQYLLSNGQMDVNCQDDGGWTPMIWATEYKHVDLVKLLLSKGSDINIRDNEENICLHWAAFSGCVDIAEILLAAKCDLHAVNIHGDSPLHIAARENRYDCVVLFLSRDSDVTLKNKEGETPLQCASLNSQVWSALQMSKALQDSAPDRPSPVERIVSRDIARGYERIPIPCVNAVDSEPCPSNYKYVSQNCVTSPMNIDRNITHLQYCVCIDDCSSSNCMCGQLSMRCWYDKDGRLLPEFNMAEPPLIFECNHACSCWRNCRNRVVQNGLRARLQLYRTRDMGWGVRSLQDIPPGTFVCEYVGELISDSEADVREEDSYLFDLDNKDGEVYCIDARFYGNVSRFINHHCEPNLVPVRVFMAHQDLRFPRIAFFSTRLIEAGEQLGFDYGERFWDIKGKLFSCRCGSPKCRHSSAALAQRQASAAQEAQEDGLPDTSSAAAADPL
Kind of assay: Selectivity interaction (Transferase panel (protein, RNA, and DNA methyltransferases. and EP300 (acetyltransferase))) EUB0000270b EHMT1.

Serine/threonine-protein kinase Nek6 (Homo sapiens), sequence (Q9HC98 whole entry): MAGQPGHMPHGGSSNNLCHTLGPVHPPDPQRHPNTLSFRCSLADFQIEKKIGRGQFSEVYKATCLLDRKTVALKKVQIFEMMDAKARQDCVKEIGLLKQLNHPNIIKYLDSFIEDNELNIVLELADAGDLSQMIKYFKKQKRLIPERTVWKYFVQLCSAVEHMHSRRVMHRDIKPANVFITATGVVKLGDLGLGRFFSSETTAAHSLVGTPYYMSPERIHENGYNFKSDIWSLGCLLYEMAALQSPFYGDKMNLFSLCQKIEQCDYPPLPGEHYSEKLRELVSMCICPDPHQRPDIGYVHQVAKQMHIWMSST
Protein kinase C theta type, sequence (Q04759 whole entry, looked up): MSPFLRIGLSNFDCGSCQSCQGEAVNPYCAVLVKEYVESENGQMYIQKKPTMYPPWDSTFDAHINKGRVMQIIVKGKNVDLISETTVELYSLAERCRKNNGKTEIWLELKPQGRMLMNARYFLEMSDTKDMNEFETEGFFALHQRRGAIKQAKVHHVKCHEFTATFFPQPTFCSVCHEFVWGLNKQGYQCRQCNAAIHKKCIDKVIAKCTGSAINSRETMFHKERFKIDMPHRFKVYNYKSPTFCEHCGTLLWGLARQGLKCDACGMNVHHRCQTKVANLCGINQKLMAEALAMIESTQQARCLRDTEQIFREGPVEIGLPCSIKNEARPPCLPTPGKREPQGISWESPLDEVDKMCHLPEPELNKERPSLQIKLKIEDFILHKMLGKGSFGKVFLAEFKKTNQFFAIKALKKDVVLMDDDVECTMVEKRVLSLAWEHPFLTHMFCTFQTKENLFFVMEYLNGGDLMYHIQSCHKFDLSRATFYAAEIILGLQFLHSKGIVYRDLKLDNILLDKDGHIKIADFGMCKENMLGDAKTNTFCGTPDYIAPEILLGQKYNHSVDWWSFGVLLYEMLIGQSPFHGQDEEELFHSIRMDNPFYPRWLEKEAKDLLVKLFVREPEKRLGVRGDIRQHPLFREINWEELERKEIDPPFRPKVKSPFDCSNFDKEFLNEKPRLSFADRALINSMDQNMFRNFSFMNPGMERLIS
Serine/threonine-protein kinase 38 (Homo sapiens), sequence (Q15208 2-465 limits assumed): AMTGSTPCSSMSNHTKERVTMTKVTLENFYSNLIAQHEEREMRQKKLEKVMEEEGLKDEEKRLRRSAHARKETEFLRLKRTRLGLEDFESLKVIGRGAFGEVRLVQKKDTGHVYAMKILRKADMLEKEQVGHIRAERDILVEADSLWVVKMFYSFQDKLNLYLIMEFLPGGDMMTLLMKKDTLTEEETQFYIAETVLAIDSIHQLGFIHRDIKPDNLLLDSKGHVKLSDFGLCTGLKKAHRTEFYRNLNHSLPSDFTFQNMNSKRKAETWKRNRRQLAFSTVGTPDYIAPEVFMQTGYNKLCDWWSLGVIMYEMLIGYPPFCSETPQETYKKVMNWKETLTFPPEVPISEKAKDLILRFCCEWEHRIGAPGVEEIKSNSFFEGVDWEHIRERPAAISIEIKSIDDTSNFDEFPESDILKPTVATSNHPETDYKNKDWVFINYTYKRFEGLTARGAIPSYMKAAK
Serine/threonine-protein kinase pim-1, sequence (P11309 whole entry, looked up): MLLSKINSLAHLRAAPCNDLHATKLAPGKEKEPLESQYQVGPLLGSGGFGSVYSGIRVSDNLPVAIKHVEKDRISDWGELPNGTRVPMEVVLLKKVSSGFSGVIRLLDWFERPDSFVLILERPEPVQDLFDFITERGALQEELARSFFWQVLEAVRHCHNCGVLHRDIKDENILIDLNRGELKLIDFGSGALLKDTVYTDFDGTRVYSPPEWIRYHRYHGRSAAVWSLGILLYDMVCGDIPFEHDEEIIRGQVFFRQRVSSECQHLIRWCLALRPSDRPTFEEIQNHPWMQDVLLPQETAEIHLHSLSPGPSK

For `Cn1cc(-n2cnc3c(NCc4nc5cc(Cl)c(Cl)cc5[nH]4)nc(N4CCOCC4)nc32)cn1`, the % of inhibition in assay [1] was -27%.

`CN(C)CCOc1ccc(-c2nc(-c3ccncc3)c(-c3ccc4c(c3)CC/C4=N\O)[nH]2)cc1` displayed a % of control in assay [2] of 86%.

Turning to `CC[C@@H]1[C@H](F)C(=O)N[C@@H]1COc1nccc2cc(C(N)=O)c(OC)cc12` [ZIMLOVISERTIB], the % of inhibition in assay [3] was 94.3%; in assay [4] (at 0.01 µM), -2.2%; in assay [4] (at 0.04 µM), 1.5%; in assay [4] (at 0.2 µM), -2.2%; in assay [4] (at 1 µM), 2%; in assay [4] (at 5 µM) it was -1.4%.

Take `Cc1cc(F)c(C(=O)Nc2cccc(-c3nncn3C(C)C)n2)cc1-n1cnc(C2CC2)c1`: the % of control in assay [5] came to 82%.

As to `C=CC(=O)Nc1cccc(C(=O)Nc2ccc(Nc3cc(-c4[nH]c(SC)nc4C)ccn3)cc2)c1`, the % of control in assay [6] (at 1 µM) was 84%; in assay [6] (at 5 µM) it was 66%; in assay [7] (at 1 µM) it was 97%; in assay [7] (at 5 µM), 96%.

As for `Cc1cc(CN)cc(C)c1-c1ncn(C)c1-c1cncn1C`, the % activity in assay [8] (at 1 µM) is greater than 90%; in assay [8] (at 10 µM), greater than 80%.

These data come from ChEMBL document CHEMBL5465560, “Selectivity Literature for EUbOPEN Chemogenomic Library” (2024).
